This note sets out measurements from PubChem BioAssay AID624167 (Sanford-Burnham Center for Chemical Genomics, 2012).

Experiment [1] has as its target PEG-3 (UniProt Q6IN02). The experiment can be described thus: inhibition of PEG-3 promoter-driven reporter – cell-based, HeLa, luciferase, CREF/GAPDH counter-screen panel, dose response (AID 624167). To be noted: HeLa PEG-Prom luciferase reporter, overnight, CREF/GAPDH counter-screens, mean of runs. In general terms: The purpose of a counterscreen is to sort out artefacts and off-target activity.

Experiment [2] deals with PEG-3. Described as above. To be noted: HeLa PEG-Prom luciferase reporter, overnight, CREF/GAPDH counter-screens.
Where [3] appears, read: run 1, dose range 1, individual replicate IC50 per panel.
Setting [4] is: run 2, dose range 1, individual replicate IC50 per panel.

As usually defined, the IC50 is the point on the concentration scale where inhibition reaches its midpoint.

Active and inactive are the calls of the source.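 Rule for the calls: active = mean IC50 for reducing PEG3 promoter reporter signal at or below a set limit, with IC50 above the limit in both counter screens; inactive = the rest, including counter screen hits.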

Chain of PEG-3 (UniProt Q6IN02) (Q6IN02 whole entry, looked up): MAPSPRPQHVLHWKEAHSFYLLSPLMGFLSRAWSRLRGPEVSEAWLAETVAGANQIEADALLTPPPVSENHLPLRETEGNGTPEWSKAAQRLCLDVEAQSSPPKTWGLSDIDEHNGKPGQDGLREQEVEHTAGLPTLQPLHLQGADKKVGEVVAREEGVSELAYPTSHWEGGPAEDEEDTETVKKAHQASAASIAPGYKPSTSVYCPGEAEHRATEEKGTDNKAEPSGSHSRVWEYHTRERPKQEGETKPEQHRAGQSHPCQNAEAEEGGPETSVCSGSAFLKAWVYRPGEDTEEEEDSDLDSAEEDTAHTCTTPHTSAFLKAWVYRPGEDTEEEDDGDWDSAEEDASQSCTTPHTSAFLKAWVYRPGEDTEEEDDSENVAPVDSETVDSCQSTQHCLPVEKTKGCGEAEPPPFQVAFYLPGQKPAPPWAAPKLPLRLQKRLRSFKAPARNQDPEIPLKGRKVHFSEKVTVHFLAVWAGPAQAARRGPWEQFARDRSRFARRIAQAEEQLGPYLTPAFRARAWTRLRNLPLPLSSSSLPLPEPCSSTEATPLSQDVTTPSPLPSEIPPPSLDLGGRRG

Take `C=CCN=C1NN=C(c2cc(C)n(CC=C)c2C)CS1`: the IC50 on PEG-3 [1] is 17.4 µM; in the experiment on PEG-3 [2] (setting [3]), 11.5 µM; with PEG-3 [2] (setting [4]) it was 23.3 µM.

Consider `CNC[C@H](CC1CCCCC1)NC[C@H](NCCC1CCCC1)[C@H](C)O`, for which the IC50 result at PEG-3 [1] was “inactive”. In addition, the concentration for half-maximal inhibition (IC50) in the experiment on PEG-3 [2] (setting [3]) stood at 37.6 µM; in the experiment with PEG-3 [2] (setting [4]) it was 12.4 µM.

With `COc1ccc(-c2sc3ccccc3c2-c2ccc(OCCN3CCCCC3)cc2)cc1`, on PEG-3 [1], the IC50 result is “inactive”. The values for the IC50 with PEG-3 [2] (setting [3]) and in the experiment with PEG-3 [2] (setting [4]) were 20.9 µM and 20.2 µM, respectively.

As to `CC(C)CC(N)c1csc(NC(=O)Nc2ccccc2C(C)(C)C)n1` (stereo not drawn), the IC50 result at PEG-3 [1] is “inactive”. The 50% inhibitory concentration (IC50) is 22.7 µM with PEG-3 [2] (setting [3]) and 18.2 µM in the experiment with PEG-3 [2] (setting [4]).

Regarding `CC1(C(=O)NCc2cccc3ccccc23)CCN1C(=O)Cc1ccc(-c2ccccc2)cc1` (stereo not drawn), the IC50 entry on PEG-3 [1] is “inactive”. Also, the figures for the IC50 with PEG-3 [2] (setting [3]) and with PEG-3 [2] (setting [4]) were 10.3 µM and > 100 µM, respectively.

Take `CCCc1ccc(C(=O)O/N=C(\N)c2ccccn2)cc1`: on PEG-3 [1], the IC50 result was “inactive”. In addition, the figures for the 50% inhibitory concentration (IC50) with PEG-3 [2] (setting [3]) and in the experiment on PEG-3 [2] (setting [4]) were 36.5 µM and 16.6 µM, respectively.

On to `COC(=O)C1=C(C(=O)OC)C(C(=O)OC)C(C(=O)OC)C(C(=O)OC)(C(=O)OC)C(C(=O)OC)=C1C(=O)OC` (stereo not drawn), for which the half-inhibitory concentration (IC50) on PEG-3 [1] is 13.8 µM; in the experiment on PEG-3 [2] (setting [3]) it was 16.9 µM; in the experiment with PEG-3 [2] (setting [4]), 10.7 µM.

Take `CN(C)CCNC(=O)/C(=C/c1ccc(-c2ccc(Cl)cc2)o1)NC(=O)c1ccccc1`: the IC50 on PEG-3 [1] is 13.9 µM; in the experiment with PEG-3 [2] (setting [3]), 18.1 µM; in the experiment on PEG-3 [2] (setting [4]) it was 9.62 µM.

As for `CCN(CC)CCCCNc1ncc2cc(-c3cc(OC)cc(OC)c3)c(NC(=O)NC(C)(C)C)nc2n1`, the IC50 result at PEG-3 [1] is “inactive”. The IC50 came out at 21 µM in the experiment on PEG-3 [2] (setting [3]) and 20.9 µM in the experiment with PEG-3 [2] (setting [4]).

On to `COc1ccc(C2c3ccc4ccccc4c3Oc3ncn(CCCO)c(=N)c32)cc1` (stereo not drawn), for which the half-maximal inhibitory concentration (IC50) at PEG-3 [1] is 19.9 µM; with PEG-3 [2] (setting [3]), 22.8 µM; with PEG-3 [2] (setting [4]) it was 17 µM.

As for `CCCc1cc(=O)n2[nH]c(C)c(-c3ccc(Cl)cc3)c2n1`, the figures for the IC50 at PEG-3 [1], in the experiment on PEG-3 [2] (setting [3]) and with PEG-3 [2] (setting [4]) were 12.9 µM, 14 µM and 11.8 µM, respectively.

As for `O=C(CCCN1C(=O)/C(=C/c2ccccc2Cl)SC1=S)NNC(=O)c1ccccc1Cl`, the IC50 entry on PEG-3 [1] was “inactive”. Also, the IC50 with PEG-3 [2] (setting [3]) was 26.4 µM; in the experiment on PEG-3 [2] (setting [4]), 22 µM.

Consider `COc1ccc(C2c3ccc4ccccc4c3Oc3ncn(CCO)c(=N)c32)cc1OC` (stereo not drawn), for which the IC50 was 14.7 µM on PEG-3 [1], 15.6 µM in the experiment on PEG-3 [2] (setting [3]) and 13.7 µM in the experiment with PEG-3 [2] (setting [4]).

Consider `N#C/C(=C\c1cccc([N+](=O)[O-])c1)C(=O)NCc1ccc(Cl)cc1`, for which the half-inhibitory concentration (IC50) at PEG-3 [1] was 14 µM; in the experiment on PEG-3 [2] (setting [3]), 14.7 µM; in the experiment on PEG-3 [2] (setting [4]), 13.4 µM.

In the case of `O=C(Nc1ccc2oc(-c3ccncc3)nc2c1)c1ccc([N+](=O)[O-])o1`, the concentration for half-maximal inhibition (IC50) was 11.2 µM at PEG-3 [1], 15.9 µM with PEG-3 [2] (setting [3]) and 6.56 µM with PEG-3 [2] (setting [4]).

`CS(=O)(=O)c1ccc(C(=O)NCCN2C(=O)S/C(=C\c3cccnc3)C2=O)cc1[N+](=O)[O-]`: the values for the concentration for half-maximal inhibition (IC50) on PEG-3 [1], with PEG-3 [2] (setting [3]) and in the experiment with PEG-3 [2] (setting [4]) were 15 µM, 17.3 µM and 12.7 µM, respectively.

Regarding `COc1ccc(NC(=O)Nc2nc(C(N)C3CCCCC3)cs2)cc1` (stereo not drawn), the IC50 at PEG-3 [1] was 20 µM; with PEG-3 [2] (setting [3]), 17.9 µM; in the experiment on PEG-3 [2] (setting [4]) it was 22.1 µM.

With `CCCCN(C)C(=O)c1ccc(Nc2nc(C(N)CCc3ccccc3)cs2)nc1` (stereo not drawn), the IC50 result at PEG-3 [1] is “inactive”. Besides, the IC50 came to 27.6 µM in the experiment with PEG-3 [2] (setting [3]) and 15.4 µM with PEG-3 [2] (setting [4]).

As to `Cc1cc(C)c2sc(N(CCCN(C)C)C(=O)c3ccc(S(=O)(=O)N(C)Cc4ccccc4)cc3)nc2c1`, the IC50 is 18.9 µM on PEG-3 [1], 20.3 µM with PEG-3 [2] (setting [3]) and 17.4 µM in the experiment on PEG-3 [2] (setting [4]).

Turning to `CCC1=C(CC2NCCc3ccccc32)CC2c3cc(OC)c(OC)cc3CCN2C1` (stereo not drawn), the half-maximal inhibitory concentration (IC50) at PEG-3 [1] is 14.2 µM; with PEG-3 [2] (setting [3]), 15.1 µM; in the experiment with PEG-3 [2] (setting [4]), 13.3 µM.

On to `CCCOc1ccc(NC(=O)CC2C(=O)N(CC)C(=S)N2CCCN2CCN(Cc3ccccc3)CC2)cc1` (stereo not drawn), for which the results for the concentration for half-maximal inhibition (IC50) at PEG-3 [1], with PEG-3 [2] (setting [3]) and with PEG-3 [2] (setting [4]) were 18.9 µM, 20.6 µM and 17.2 µM, respectively.

Take `CCCCn1nnnc1C(CCSC)N1CCC(n2c(=O)[nH]c3ccccc32)CC1` (stereo not drawn): at PEG-3 [1], the IC50 result is “inactive”. The IC50 in the experiment on PEG-3 [2] (setting [3]) came to 34.4 µM; in the experiment with PEG-3 [2] (setting [4]), 70.3 µM.

On to `Cc1cc2sc3ccc(C#CC4(O)CCCCC4)cc3c(=O)c2cc1C`, for which the IC50 at PEG-3 [1] was 0.265 µM; in the experiment with PEG-3 [2] (setting [3]) it was 0.265 µM; with PEG-3 [2] (setting [4]), < 0.2 µM.

For the compound `Cc1ccc(-n2cc(-c3ccccc3)c3c(N4CCOCC4)ncnc32)cc1`, the IC50 on PEG-3 [1] is 18.2 µM; with PEG-3 [2] (setting [3]), 10.8 µM; in the experiment on PEG-3 [2] (setting [4]), 25.7 µM.

As to `COC(=O)c1cn(NC(=O)c2cc([N+](=O)[O-])ccc2F)c(=O)c2ccccc12`, the IC50 entry at PEG-3 [1] was “inactive”. Moreover, the figures for the half-inhibitory concentration (IC50) in the experiment with PEG-3 [2] (setting [3]) and with PEG-3 [2] (setting [4]) were 26.1 µM and 46.5 µM, respectively.

Take `COc1ccc(-c2oc3ccc(-c4cc(OC)c(OC)c(OC)c4)cc3c2C#Cc2ccccn2)cc1`: the values for the IC50 at PEG-3 [1], in the experiment with PEG-3 [2] (setting [3]) and with PEG-3 [2] (setting [4]) were 12.2 µM, 2.89 µM and 21.5 µM, respectively.
